Assay results taken from patent publication US9050345B2, “Pyrrolotriazines as potassium ion channel inhibitors” (BRISTOL-MYERS SQUIBB COMPANY, priority 2013, dated 2015).

Target: T1, human KV 1.5 (IKur) (Homo sapiens, UniProt P22460)
T1 construct: expressed in transfected cells
Assay: block of IKur current in patch clamped L-929 cells expressing human Kv1.5
Format: cell-based
Conditions: 0.3 μM; patch clamped mammalian L-929 cells stably expressing human Kv1.5

T1 sequence (P22460 whole entry): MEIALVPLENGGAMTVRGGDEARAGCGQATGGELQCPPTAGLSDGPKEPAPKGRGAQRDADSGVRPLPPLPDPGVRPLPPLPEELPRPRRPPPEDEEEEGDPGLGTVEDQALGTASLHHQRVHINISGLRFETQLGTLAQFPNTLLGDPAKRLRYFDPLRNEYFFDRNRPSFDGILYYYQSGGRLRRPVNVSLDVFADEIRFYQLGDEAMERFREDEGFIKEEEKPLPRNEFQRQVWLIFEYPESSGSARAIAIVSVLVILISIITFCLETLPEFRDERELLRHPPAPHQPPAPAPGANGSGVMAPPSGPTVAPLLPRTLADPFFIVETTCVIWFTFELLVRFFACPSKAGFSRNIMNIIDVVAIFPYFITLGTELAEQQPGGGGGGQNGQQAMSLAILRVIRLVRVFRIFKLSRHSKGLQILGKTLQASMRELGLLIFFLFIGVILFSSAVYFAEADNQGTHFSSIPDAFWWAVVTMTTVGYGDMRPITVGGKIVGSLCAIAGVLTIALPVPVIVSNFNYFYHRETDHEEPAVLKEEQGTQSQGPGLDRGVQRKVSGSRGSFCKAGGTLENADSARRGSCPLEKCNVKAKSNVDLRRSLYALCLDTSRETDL

| KV1_5% Inh L929 @0.3 μM | SMILES |
| --- | --- |
| 98.89% | NS(=O)(=O)c1cncc(-c2nc(NCC3CCCCO3)c3c(-c4ccccc4)ccn3n2)c1 (stereo not shown) [Example 102, 5-(5-phenyl-4-((tetrahydro-2H-pyran-2-yl)methylamino)pyrrolo[1,2-f][1,2,4]triazin-2-yl)pyridine-3-sulfonamide] |

Same assay, conditions: L929, 0.3 μM; patch clamped mammalian L-929 cells stably expressing human Kv1.5; read-out: KV1_5% Inh L929 @0.3 μM

| inhibition at 0.3 µM | SMILES |
| --- | --- |
| 93.6% | NS(=O)(=O)c1cncc(-c2nc(NCC3CCCCO3)c3c(-c4ccccc4)ccn3n2)c1 (stereo not shown) [Example 101, 5-(5-phenyl-4-((tetrahydro-2H-pyran-2-yl)methylamino)pyrrolo [1,2-f][1,2,4]triazin-2-yl)pyridine-3-sulfonamide] |
| 72.2% | O=C(c1cncc(-c2nc(NCc3ccccc3)c3c(-c4ccccc4)ccn3n2)c1)N(CCO)CCO [Example 103, 5-(4-(benzylamino)-5-phenylpyrrolo[1,2-f] [1,2,4]triazin-2-yl)-N, N-bis(2-hydroxyethyl) nicotinamide] |
| 95.7% | NS(=O)(=O)c1cncc(-c2nc(NCc3ccccn3)c3c(-c4cccc(F)c4)ccn3n2)c1 [Example 104, 5-(5-(3-fluorophenyl)-4-(pyridin-2-ylmethylamino)pyrrolo[1,2-f][1,2,4]triazin-2-yl)pyridine-3-sulfonamide] |
| 89.3% | COc1ccc(-c2ccn3nc(-c4cncc(S(N)(=O)=O)c4)nc(NCc4ccccn4)c23)cc1 [Example 105, 5-(5-(4-methoxyphenyl)-4-(pyridin-2-ylmethylamino)pyrrolo[1,2-f][1,2,4]triazin-2-yl)pyridine-3-sulfonamide] |
| 16% | NS(=O)(=O)c1cncc(-c2nc(NCc3ccccn3)c3c(-c4ccc(N5CCOCC5)cc4)ccn3n2)c1 [Example 106, 5-(5-(4-morpholinophenyl)-4-(pyridin-2-ylmethylamino)pyrrolo[1,2-f][1,2,4]triazin-2-yl)pyridine-3-sulfonamide] |
| 15.6% | N#Cc1ccc(-c2ccn3nc(-c4cncc(S(N)(=O)=O)c4)nc(NCc4ccccn4)c23)cc1 [Example 107, 5-(5-(-4-cyanophenyl)-4-(pyridin-2-ylmethylamino)pyrrolo[1,2-f][1,2,4]triazin-2-yl)pyridine-3-sulfonamide] |
| 72% | NS(=O)(=O)c1cncc(-c2nc(NCc3cccnn3)c3c(-c4ccccc4)ccn3n2)c1 [Example 108, 5-(5-phenyl-4-(pyridazin-3-ylmethylamino)pyrrolo [1,2-f][1,2,4]triazin-2-yl)pyridine-3-sulfonamide] |
| 98.2% | NC(=O)c1cccc(-c2nc(NCc3ccccn3)c3c(-c4ccccc4)ccn3n2)c1 [Example 109, 3-(5-phenyl-4-(pyridin-2-ylmethylamino)pyrrolo[1,2-f][1,2,4]triazin-2-yl)benzamide] |
| 81.4% | CS(=O)(=O)Nc1cncc(-c2nc(NCc3ccccn3)c3c(-c4ccc(F)cc4)ccn3n2)c1 [Example 110, N-(5-(5-(4-fluorophenyl)-4-(pyridin-2-ylmethylamino)pyrrolo[1,2-f] [1,2,4]triazin-2-yl)pyridin-3-yl) methanesulfonamide] |
| 97% | COc1ccc(-c2nc(NCc3ccccn3)c3c(-c4ccccc4)ccn3n2)cn1 [Example 111, 2-(6-methoxypyridin-3-yl)-5-phenyl-N-(pyridin-2-ylmethyl)pyrrolo[1,2-f] [1,2,4]triazin-4-amine] |
| 99% | NC(=O)c1ccc(-c2nc(NCc3ccccn3)c3c(-c4ccccc4)ccn3n2)cc1 [Example 112, 4-(5-phenyl-4-(pyridin-2-ylmethylamino)pyrrolo[1,2-f][1,2,4]triazin-2-yl)benzamide] |
| 88.4% | CC(=O)Nc1ccc(NC(=O)c2nc(NCc3ccccc3)c3c(-c4ccccc4)ccn3n2)cc1 [Example 113, N-(4-acetamidophenyl)-4-(benzylamino)-5-phenylpyrrolo[1,2-f] [1,2,4] triazine-2-carboxamide] |
| 35.2% | NC(=O)c1ccccc1NC(=O)c1nc(NCc2ccccc2)c2c(-c3ccccc3)ccn2n1 [Example 114, 4-(benzylamino)-N-(2-carbamoylphenyl)-5-phenylpyrrolo [1,2-f][1,2,4] triazine-2-carboxamide] |
| 90% | NC(=O)c1ccc(NC(=O)c2nc(NCc3ccccc3)c3c(-c4ccccc4)ccn3n2)cc1 [Example 115, 4-(benzylamino)-N-(4-carbamoylphenyl)-5-phenylpyrrolo [1,2-f][1,2,4] triazine-2-carboxamide] |
| 89.4% | NS(=O)(=O)c1cccc(NC(=O)c2nc(NCc3ccccc3)c3c(-c4ccccc4)ccn3n2)c1 [Example 116, 4-(benzylamino)-5-phenyl-N-(3-sulfamoylphenyl) pyrrolo[1,2-f][1,2,4] triazine-2-carboxamide] |
| 86.6% | NS(=O)(=O)c1ccc(CCNC(=O)c2nc(NCc3ccccc3)c3c(-c4ccccc4)ccn3n2)cc1 [Example 117, 4-(benzylamino)-5-phenyl-N-(4-sulfamoylphenethyl) pyrrolo[1,2-f][1,2,4] triazine-2-carboxamide] |
| 45% | O=C(NC1(CO)CCCC1)c1nc(NCc2ccccc2)c2c(-c3ccccc3)ccn2n1 [Example 118, 4-(benzylamino)-N-(1-(hydroxymethyl)cyclopentyl)-5-phenylpyrrolo [1,2-f][1,2,4] triazine-2-carboxamide] |

| inhibition at 0.3 µM | SMILES |
| --- | --- |
| 67.5% | O=C(NC[C@H](O)c1ccccc1)c1nc(NCc2ccccc2)c2c(-c3ccccc3)ccn2n1 [Example 119, (R)-4-(benzylamino)-N-(2-hydroxy-2-phenylethyl)-5-phenylpyrrolo [1,2-f][1,2,4] triazine-2-carboxamide] |
| 49% | O=C(c1nc(NCc2ccccc2)c2c(-c3ccccc3)ccn2n1)N1CCN(c2ccc(O)cc2)CC1 [Example 120, (4-(benzylamino)-5-phenylpyrrolo [1,2-f][1,2,4]triazin-2-yl)(4-(4-hydroxyphenyl)piperazin-1-yl)methanone] |
| 75.8% | O=C(Nc1ccc(CCO)cc1)c1nc(NCc2ccccc2)c2c(-c3ccccc3)ccn2n1 [Example 122, 4-(benzylamino)-N-(4-(2-hydroxyethyl)phenyl)-5-phenylpyrrolo [1,2-f][1,2,4] triazine-2-carboxamide] |
| 63.5% | O=C(Nc1ccc(-n2cncn2)cc1)c1nc(NCc2ccccc2)c2c(-c3ccccc3)ccn2n1 [Example 123, N-(4-(1H-1,2,4-triazol-1-yl)phenyl)-4-(benzylamino)-5-phenylpyrrolo [1,2-f][1,2,4] triazine-2-carboxamide] |
| 86.4% | O=C(Nc1ccncn1)c1nc(NCc2ccccc2)c2c(-c3ccccc3)ccn2n1 [Example 124, 4-(benzylamino)-5-phenyl-N-(pyrimidin-4-yl)pyrrolo[1,2-f][1,2,4] triazinc-2-carboxamide] |
| 88.7% | COc1ccc(CNC(=O)c2nc(NCc3ccccc3)c3c(-c4ccccc4)ccn3n2)c(OC)c1 [Example 125, 4-(benzylamino)-N-(2,4-dimethoxybenzyl)-5-phenylpyrrolo [1,2-f][1,2,4] triazine-2-carboxamide] |
| 98.5% | c1ccc(-c2ccn3nc(-c4cc[nH]n4)nc(NCc4ccccn4)c23)cc1 [Example 126, 5-pheny 1-2-(1H-pyrazol-3-yl)-N-(pyridin-2-ylmethyl) pyrrolo[1,2-f][1,2,4] triazin-4-amine] |
| 99.3% | NS(=O)(=O)c1cncc(-c2nc(NCc3ccccn3)c3c(-c4ccccc4)ccn3n2)n1 [Example 127, 6-(5-phenyl-4-(pyridin-2-ylmethylamino)pyrrolo[1,2-f][1,2,4]triazin-2-yl)pyrazine-2-sulfonamide] |
| 95.4% | c1ccc(CNc2nc(C3CCOCC3)nn3ccc(-c4ccccc4)c23)cc1 [Example 128, N-benzyl-5-phenyl-2-(tetrahydro-2H-pyran-4-yl)pyrrolo[1,2-f][1,2,4] triazin-4-amine] |
| 93.8% | NS(=O)(=O)c1cncc(-c2nc(NCc3ccccc3)c3c(C4=CCOCC4)ccn3n2)c1 [Example 129, 5-(4-(benzylamino)-5-(3,6-dihydro-2H-pyran-4-yl)pyrrolo[2,1-f][1,2,4]triazin-2-yl)pyridine-3-sulfonamide] |
| 97.6% | Nc1ncc(-c2nc(NCc3ccccn3)c3c(-c4ccccc4)ccn3n2)cc1S(N)(=O)=O [Example 130, 2-amino-5-(5-phenyl-4-((pyridin-2-ylmethyl)amino)pyrrolo [2,1-f][1,2,4]triazin-2-yl)pyridine-3-sulfonamide] |
| 83.9% | NS(=O)(=O)c1cncc(-c2nc(NCC3CCCCC3)c3c(-c4ccccc4)ccn3n2)c1 [Example 131, 5-(4-((cyclohexylmethyl)amino)-5-phenylpyrrolo [2,1-f][1,2,4]triazin-2-yl)pyridine-3-sulfonamide] |
| 95% | CCOc1ncc(-c2nc(NCc3ccccn3)c3c(-c4ccccc4)ccn3n2)cc1S(N)(=O)=O [Example 134, 2-ethoxy-5-(5-phenyl-4-((pyridin-2-ylmethyl)amino)pyrrolo [2,1-f][1,2,4]triazin-2-yl)pyridine-3-sulfonamide] |
| 98.5% | NS(=O)(=O)c1cncc(-c2nc(NCc3ccccn3)c3c(-c4ccccc4C(F)(F)F)ccn3n2)c1 [Example 135, 5-(4-((pyridin-2-ylmethyl)amino)-5-(2-(trifluoromethyl)phenyl)pyrrolo[2,1-f][1,2,4]triazin-2-yl)pyridine-3-sulfonamide] |
| 98.7% | NS(=O)(=O)c1cncc(-c2nc(NCc3ccccn3)c3c(-c4ccccc4Cl)ccn3n2)c1 [Example 136, 5-(5-(2-chlorophenyl)-4-((pyridin-2-ylmethyl)amino)pyrrolo [2,1-f][1,2,4]triazin-2-yl)pyridine-3-sulfonamide] |
| 82.9% | COc1ncc(-c2nc(NCc3cnccn3)c3c(-c4ccccc4)ccn3n2)cc1S(N)(=O)=O [Example 137, 2-methoxy-5-(5-phenyl-4-((pyrazin-2-ylmethyl)amino)pyrrolo [2,1-f][1,2,4]triazin-2-yl)pyridine-3-sulfonamide] |
